Earlier results, collected in patent US20180064146A1, “METHOD FOR THE SURFACE DECONTAMINATION OF PACKAGED SOLID FOOD” (priority 2015, published 2018).

Columns and labels:
[1] = system: strains of Arcobacter butzleri; settings: vapours; Arcobacter butzleri in cabbage leaf; to an undetectable level
[2] = system: Escherichia coli; settings: for MICs (in liquid form): agar dilution, oil in liquid form; for MIDs (as vapour): oil as vapour

With `CC(C)=CCCC(C)=CC=O` [Citral] as the compound, how does the microbial load reduction [1] read?
Its microbial load reduction is 7 log CFU/2 cm^2.

And the “MICs (in liquid form)” value [2]?
Its value is 800 µg/mL.

And the “MIDs (as vapour)” value [2]?
The value was 12.5 μg/cm^2.

For `C=C(C)[C@H]1CC=C(C)CC1` [Limonene], which “MICs (in liquid form)” value [2] is on record?
Its value is 3200 µg/mL.

What about the “MIDs (as vapour)” value [2] of the same compound?
The value was 800 μg/cm^2.

What does the source list for `C=CC(C)(O)CCC=C(C)C` (centres unmarked) [Linalool]?
microbial load reduction [1]: 7 log CFU/2 cm^2; MICs (in liquid form) [2]: 3200 µg/mL; MIDs (as vapour) [2]: 50 μg/cm^2
